The source of these data is US10029986B2, “Alkynyl pyridine-substituted amide compound and pesticide” (NISSAN CHEMICAL INDUSTRIES, LTD., priority 2014, dated 2018).

The structures appear in SMILES notation.

Test [1] relates to Erysiphe polygoni (synonym: Erysiphe betae). Put plainly: Test on the preventive effect against cucumber powdery mildew. The format is in vivo. As to conditions: 216 h, test solution A 500 ppm, 5 ml per pot sprayed, cucumber cotyledon stage, 9 days after inoculation. The method, boiled down:
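Cucumber (Sagami Hanjiro) at cotyledon stage sprayed with 500 ppm compound (diluted from 20 wt% emulsifiable concentrate), air-dried, then inoculated with Erysiphe polygoni conidia. Kept 9 days at 20 °C in greenhouse; lesion area ratio scored in duplicate, control value = [1−(treated/untreated lesion ratio)]×100.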

The next test concerns Botrytis cinerea. Put plainly: Test on the preventive effect against cucumber gray mold (mycelium inoculation). It is filed as in vivo. As to conditions: 48 h, test solution A 500 ppm, 5 ml per pot, cucumber cotyledon, agar block inoculation, 2 days at 20° C. The method in brief:
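Cucumber cotyledons (Sagami Hanjiro) were sprayed with 5 ml per pot of a 500 ppm dilution of a 20 wt % emulsifiable concentrate. Next day, mycelial agar plugs of Botrytis cinerea were placed on cotyledons, held humid at 20° C for 2 days. Lesion proportion gave the control value; duplicate.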

A further test concerns Sclerotinia sclerotiorum. Kind of test: Test on the preventive effect against cucumber stem rot. It is filed as in vivo. To be noted: 48 h, test solution A 500 ppm, 5 ml per pot, agar block inoculation, 2 days at 20° C. The method, boiled down: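 Cucumber (Sagami Hanjiro) at cotyledon stage sprayed with 5 ml/pot of 500 ppm compound from a 20 wt % emulsifiable concentrate, air-dried, then inoculated on seed leaves with agar blocks of S. sclerotiorum grown on PDA. Kept humid at 20° C for 2 days; lesion proportion scored and control value calculated, in duplicate.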

A further test relates to Asperaillus niger. Put plainly: Test on the antifungal activity against Asperaillus niger. It is filed as cell-based. As to conditions: 48 h; test solution B 100 ppm, 10 μl per well, 96 well plate, 25° C. dark, 2 days after treatment; read-out: efficacy (flora area ratio relative to non-treated well). The method in brief: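 Compounds at 100 ppm (diluted from DMSO stock in water) were added to potato dextrose 1% agar wells seeded with Aspergillus niger spores (10 spores/3 μl). Plates held at 25 °C in dark for 2 days. Efficacy (%) calculated from flora area ratio versus non-treated wells.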

Test [2] concerns Southern root-knot nematode (Meloidogyne incoqnita). Put plainly: Insecticidal test against Southern root-knot nematode (eggs, 96 well plate). It is filed as in vivo. As to conditions: 96 h, test solution B 100 ppm, 10 μl per well, 25° C. dark, 4 days after treatment, read-out: efficacy (unhatched eggs + inactive larvae relative to non-treated).
Test [3] concerns Barber pole worm (Haemonchus contortus). Kind of test: Insecticidal test against Barber pole worm (eggs, 96 well plate). The format is in vivo. As to conditions: 96 h, test solution B 100 ppm, 10 μl per well, 25° C. dark, 4 days after treatment, read-out: efficacy (unhatched eggs and inactive larvae relative to non-treated). The method in brief: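 Haemonchus contortus eggs (about 10 per 3 μl) were placed on 1% potato dextrose agar in wells. Compound diluted from 1 wt % DMSO solutions to 100 ppm in water was added, and plates were held at 25° C. in the dark.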

As for `CC(CNC(=O)c1cn(C)nc1C(F)F)c1ncc(C#CC2CC2)cc1Cl` (stereo not drawn) [8-007], the pest or weed control at 500 µg/mL (in test [1]; in the test with Botrytis cinerea; in the test on Sclerotinia sclerotiorum) was at least 70% throughout. In addition, the inhibition of growth at 100 µg/mL in the test with Asperaillus niger is at least 50%. Moreover, the pest or weed control at 100 µg/mL in test [2] and in test [3] was at least 50% each time.

As for `C=C(CNC(=O)c1ccccc1C(F)(F)F)c1ncc(C#CC)cc1Cl` [1-012, N-[2-[3-chloro-5-(1-propynyl)pyridin-2-yl]-2-propenyl]-2-(trifluoromethyl)benzamide], the pest or weed control at 500 µg/mL (in test [1]; in the test on Botrytis cinerea; in the test on Sclerotinia sclerotiorum) was at least 70% throughout. The inhibition of growth at 100 µg/mL in the test on Asperaillus niger was at least 50%. Also, the pest or weed control at 100 µg/mL in test [2] and in test [3] was at least 50% in each case.

Regarding `CC(C)(C)C#Cc1cnc(CCNC(=O)c2ccccc2C(F)(F)F)c(Cl)c1` [1-003, N-[2-[3-chloro-5-(3,3-dimethyl-1-butynyl)pyridin-2-yl]ethyl]-2-(trifluoromethyl)benzamide], the pest or weed control at 500 µg/mL (in test [1]; in the test with Botrytis cinerea; with Sclerotinia sclerotiorum) was at least 70% throughout. The inhibition of growth at 100 µg/mL in the test on Asperaillus niger is at least 50%. The pest or weed control at 100 µg/mL in test [2] and in test [3] was at least 50% in each case.

For the compound `C=C(CNC(=O)c1cn(C)nc1C(F)F)c1ncc(C#CC2CC2)cc1Cl` [8-011, N-[2-[3-chloro-5-(cyclopropylethynyl)pyridin-2-yl]-2-propenyl]-3-difluoromethyl-1-methyl-1H-pyrazole-4-carboxamide], the pest or weed control at 500 µg/mL (in test [1]; in the test on Botrytis cinerea; in the test with Sclerotinia sclerotiorum) was at least 70% throughout. The inhibition of growth at 100 µg/mL in the test on Asperaillus niger is at least 50%. The pest or weed control at 100 µg/mL in test [2] and in test [3] was at least 50% each time.

`COC(CNC(=O)c1cn(C)nc1C(F)F)c1ncc(C#CC2CC2)cc1Cl` (stereo not drawn) [8-019]: the pest or weed control at 500 µg/mL (in test [1]; in the test with Botrytis cinerea; with Sclerotinia sclerotiorum) was at least 70% throughout. The inhibition of growth at 100 µg/mL in the test with Asperaillus niger is at least 50%. Further, the pest or weed control at 100 µg/mL in test [2] and in test [3] was at least 50% throughout.
